Source: patent US10800785B2, “Substituted pyrrolo[2,3-d]pyridazin-4-ones and pyrazolo[3,4-d]pyridazin-4-ones as protein kinase inhibitors” (Shanghai Fochon Pharmaceutical Co., Ltd., priority 2016, dated 2020)

These compounds were tested on DOHH2 cells (assay: Cell proliferation assay (MTS) in DOHH2 cells, mechanism-based assay for BTK inhibition). Settings: Homo sapiens, DOHH-2, 120 h incubation, 5000 cells/well.
Description: Cell Proliferation Assays
MTS testing kit was purchased from Promega. The DMEM, Fetal bovine serum and Penicillin-Streptomycin were purchased from Gibco. Dimethyl sulfoxide (DMSO) was purchased from Sigma.
To investigate whether a compound is able to inhibit the activity of BTK in cells, a mechanism-based assay using DOHH2 (DSMZ catalog#: ACC47) and Mino (ATCC® Number CRL-3000™) cells was developed. In this assay, inhibition of BTK was detected by the inhibition of DOHH2 and Mino cell proliferations. DOHH2 or Mino cells were cultured in culture flasks to 40-80% confluence in RPMI-1640 plus 10% fetal bovine serum. C ells were collected and plated onto 96-well plates at desired cell density (DOHH2: 5000 cells/well; Mino: 10000 cells/well). Plates were incubated overnight at 37° C., with 5% CO2 to adhere. Compounds were added to the plates, and the final compound concentrations were 10000, 3333, 1111, […], 41, 14, 4.6 and 1.5 nM. Plates were placed at 37° C., with 5% CO2 for 120 h (DOHH2) or 72 h (Mino). 20 μl MTS/100 μl medium mixture solution were added to each well and the plates were incubated for exactly 2 hours. The reaction was stopped by adding 25 μl 10% SDS per well.
Select compounds prepared as described above were assayed according to the biological procedures described herein.

Question: How did the IC50 turn out when `C=CC(=O)N1CCC[C@H](c2cn(-c3ccc(Oc4ccccc4F)cc3)c3c(N)n[nH]c(=O)c23)C1` [Example 35, (R)-3-(1-acryloylpiperidin-3-yl)-7-amino-1-(4-(2-fluorophenoxy)phenyl)-1,5-dihydro-4H-pyrrolo [2,3-d]pyridazin-4-one] was run?
Answer: 33 nM

Question: For `C=CC(=O)N1CCC[C@H](c2cn(-c3ccc(Oc4cccc(F)c4)cc3)c3c(N)n[nH]c(=O)c23)C1` [Example 36, (R)-3-(1-acryloylpiperidin-3-yl)-7-amino-1-(4-(3-fluorophenoxy)phenyl)-1,5-dihydro-4H-pyrrolo [2,3-d]pyridazin-4-one], which IC50 is on record?
Answer: 585 nM

Question: Which IC50 does the source give for `C=CC(=O)N1CCC[C@H](c2cn(-c3ccc(Oc4cccc(F)c4F)cc3)c3c(N)n[nH]c(=O)c23)C1` [Example 38, (R)-3-(1-acryloylpiperidin-3-yl)-7-amino-1-(4-(2,3-difluorophenoxy)phenyl)-1,5-dihydro-4H-pyrrolo[2,3-d]pyridazin-4-one] here?
Answer: 175 nM

Question: How did the IC50 turn out when `C=CC(=O)N1CCC[C@H](c2cn(-c3ccc(Oc4c(F)cccc4F)cc3)c3c(N)n[nH]c(=O)c23)C1` [Example 39, (R)-3-(1-acryloylpiperidin-3-yl)-7-amino-1-(4-(2,6-difluorophenoxy)phenyl)-1,5-dihydro-4H-pyrrolo[2,3-d]pyridazin-4-one] was run?
Answer: 31 nM

Question: How did the IC50 turn out when `C=CC(=O)N1CCC[C@H](c2cn(-c3ccc(Oc4cc(F)cc(F)c4)cc3)c3c(N)n[nH]c(=O)c23)C1` [Example 40, (R)-3-(1-acryloylpiperidin-3-yl)-7-amino-1-(4-(3,5-difluorophenoxy)phenyl)-1,5-dihydro-4H-pyrrolo[2,3-d]pyridazin-4-one] was run?
Answer: 375 nM

Question: With `C=CC(=O)N1CC[C@@H](c2nn(-c3ccc(Oc4ccccc4F)cc3)c3c(N)n[nH]c(=O)c23)C1` [Example 41, (R)-3-(1-acryloylpyrrolidin-3-yl)-7-amino-1-(4-(2-fluorophenoxy)phenyl)-1,5-dihydro-4H-pyrazolo[3,4-d]pyridazin-4-one] as the compound, how does the IC50 read?
Answer: 146 nM

Question: `C=CC(=O)N1CC[C@@H](c2nn(-c3ccc(Oc4cccc(F)c4F)cc3)c3c(N)n[nH]c(=O)c23)C1` [Example 44, (R)-3-(1-acryloylpyrrolidin-3-yl)-7-amino-1-(4-(2,3-difluorophenoxy)phenyl)-1,5-dihydro-4H-pyrazolo[3,4-d]pyridazin-4-one] was tested. Which IC50 did it give?
Answer: 113 nM

Question: Which IC50 does the source give for `C=CC(=O)N1CC[C@@H](c2nn(-c3ccc(Oc4cc(F)cc(F)c4)cc3)c3c(N)n[nH]c(=O)c23)C1` [Example 46, (R)-3-(1-acryloylpyrrolidin-3-yl)-7-amino-1-(4-(3,5-difluorophenoxy)phenyl)-1,5-dihydro-4H-pyrazolo[3,4-d]pyridazin-4-one] here?
Answer: 59 nM

Question: With `C=CC(=O)N1CC[C@H](c2nn(-c3ccc(Oc4ccccc4F)cc3)c3c(N)n[nH]c(=O)c23)C1` [Example 47, (S)-3-(1-acryloylpyrrolidin-3-yl)-7-amino-1-(4-(2-fluorophenoxy)phenyl)-1,5-dihydro-4H-pyrazolo[3,4-d]pyridazin-4-one] as the compound, how does the IC50 read?
Answer: 60 nM

Question: `C=CC(=O)N1CC[C@H](c2nn(-c3ccc(Oc4cccc(F)c4F)cc3)c3c(N)n[nH]c(=O)c23)C1` [Example 50, (S)-3-(1-acryloylpyrrolidin-3-yl)-7-amino-1-(4-(2,3-difluorophenoxy)phenyl)-1,5-dihydro-4H-pyrazolo[3,4-d]pyridazin-4-one] was tested. Which IC50 did it give?
Answer: 678 nM

Question: `C=CC(=O)N1CC[C@H](c2nn(-c3ccc(Oc4c(F)cccc4F)cc3)c3c(N)n[nH]c(=O)c23)C1` [Example 51, (S)-3-(1-acryloylpyrrolidin-3-yl)-7-amino-1-(4-(2,6-difluorophenoxy)phenyl)-1,5-dihydro-4H-pyrazolo[3,4-d]pyridazin-4-one] was tested. Which IC50 did it give?
Answer: 215 nM

Question: For `C=CC(=O)N1CC[C@H](c2nn(-c3ccc(Oc4cc(F)cc(F)c4)cc3)c3c(N)n[nH]c(=O)c23)C1` [Example 52, (S)-3-(1-acryloylpyrrolidin-3-yl)-7-amino-1-(4-(3,5-difluorophenoxy)phenyl)-1,5-dihydro-4H-pyrazolo[3,4-d]pyridazin-4-one], which IC50 is on record?
Answer: 321 nM

Question: With `C=CC(=O)N1CCC[C@@H](c2nn(-c3ccc(Oc4ccccc4F)cc3)c3c(N)n[nH]c(=O)c23)C1` [Example 53, (R)-3-(1-acryloylpiperidin-3-yl)-7-amino-1-(4-(2-fluorophenoxy)phenyl)-1,5-dihydro-4H-pyrazolo[3,4-d]pyridazin-4-one] as the compound, how does the IC50 read?
Answer: 196 nM

Question: `C=CC(=O)N1CCC[C@@H](c2nn(-c3ccc(Oc4cccc(F)c4F)cc3)c3c(N)n[nH]c(=O)c23)C1` [Example 56, (R)-3-(1-acryloylpiperidin-3-yl)-7-amino-1-(4-(2,3-difluorophenoxy)phenyl)-1,5-dihydro-4H-pyrazolo[3,4-d]pyridazin-4-one] was tested. Which IC50 did it give?
Answer: 42 nM

Question: Which IC50 does the source give for `C=CC(=O)N1CCC[C@@H](c2nn(-c3ccc(Oc4c(F)cccc4F)cc3)c3c(N)n[nH]c(=O)c23)C1` [Example 57, (R)-3-(1-acryloylpiperidin-3-yl)-7-amino-1-(4-(2,6-difluorophenoxy)phenyl)-1,5-dihydro-4H-pyrazolo[3,4-d]pyridazin-4-one] here?
Answer: 76 nM

Question: With `C=CC(=O)N1CCC[C@@H](c2nn(-c3ccc(Oc4cc(F)cc(F)c4)cc3)c3c(N)n[nH]c(=O)c23)C1` [Example 58, (R)-3-(1-acryloylpiperidin-3-yl)-7-amino-1-(4-(3,5-difluorophenoxy)phenyl)-1,5-dihydro-4H-pyrazolo[3,4-d]pyridazin-4-one] as the compound, how does the IC50 read?
Answer: 224 nM

Question: How did the IC50 turn out when `C=CC(=O)N1CCC[C@H](c2nn(-c3ccc(Oc4ccccc4F)cc3)c3c(N)n[nH]c(=O)c23)C1` [Example 59, (S)-3-(1-acryloylpiperidin-3-yl)-7-amino-1-(4-(2-fluorophenoxy)phenyl)-1,5-dihydro-4H-pyrazolo [3,4-d]pyridazin-4-one] was run?
Answer: 248 nM

Question: With `C=CC(=O)N1CCC[C@H](c2nn(-c3ccc(Oc4cccc(F)c4F)cc3)c3c(N)n[nH]c(=O)c23)C1` [Example 62, (S)-3-(1-acryloylpiperidin-3-yl)-7-amino-1-(4-(2,3-difluorophenoxy)phenyl)-1,5-dihydro-4H-pyrazolo[3,4-d]pyridazin-4-one] as the compound, how does the IC50 read?
Answer: 147 nM

Question: For `C=CC(=O)N1CCC[C@H](c2nn(-c3ccc(Oc4c(F)cccc4F)cc3)c3c(N)n[nH]c(=O)c23)C1` [Example 63, (S)-3-(1-acryloylpiperidin-3-yl)-7-amino-1-(4-(2,6-difluorophenoxy)phenyl)-1,5-dihydro-4H-pyrazolo[3,4-d]pyridazin-4-one], which IC50 is on record?
Answer: 189 nM

Question: With `CC#CC(=O)N1CC[C@@H](c2nn(-c3ccc(Oc4ccccc4)cc3)c3c(N)n[nH]c(=O)c23)C1` [Example 65, (R)-7-amino-3-(1-(but-2-ynoyl)pyrrolidin-3-yl)-1-(4-phenoxyphenyl)-1,5-dihydro-4H-pyrazolo[3,4-d]pyridazin-4-one] as the compound, how does the IC50 read?
Answer: 505 nM

Question: With `CC#CC(=O)N1CC[C@H](c2nn(-c3ccc(Oc4ccccc4)cc3)c3c(N)n[nH]c(=O)c23)C1` [Example 66, (S)-7-amino-3-(1-(but-2-ynoyl)pyrrolidin-3-yl)-1-(4-phenoxyphenyl)-1,5-dihydro-4H-pyrazolo [3,4-d]pyridazin-4-one] as the compound, how does the IC50 read?
Answer: 242 nM

Question: With `CC#CC(=O)N1CC[C@@H](c2cn(-c3ccc(Oc4ccccc4)cc3)c3c(N)n[nH]c(=O)c23)C1` [Example 67, (S)-7-amino-3-(1-(but-2-ynoyl)pyrrolidin-3-yl)-1-(4-phenoxyphenyl)-1,5-dihydro-4H-pyrrolo [2,3-d]pyridazin-4-one] as the compound, how does the IC50 read?
Answer: 205 nM

Question: For `CC#CC(=O)N1CC[C@H](c2cn(-c3ccc(Oc4ccccc4)cc3)c3c(N)n[nH]c(=O)c23)C1` [Example 68, (R)-7-amino-3-(1-(but-2-ynoyl)pyrrolidin-3-yl)-1-(4-phenoxyphenyl)-1,5-dihydro-4H-pyrrolo [2,3-d]pyridazin-4-one], which IC50 is on record?
Answer: 146 nM

Question: Which IC50 does the source give for `CC#CC(=O)N1CCC[C@@H](c2nn(-c3ccc(Oc4ccccc4)cc3)c3c(N)n[nH]c(=O)c23)C1` [Example 69, (R)-7-amino-3-(1-(but-2-ynoyl)piperidin-3-yl)-1-(4-phenoxyphenyl)-1,5-dihydro-4H-pyrazolo [3,4-d]pyridazin-4-one] here?
Answer: 863 nM

Question: For `CC#CC(=O)N1CCC[C@@H](c2cn(-c3ccc(Oc4ccccc4)cc3)c3c(N)n[nH]c(=O)c23)C1` [Example 71, (S)-7-amino-3-(1-(but-2-ynoyl)piperidin-3-yl)-1-(4-phenoxyphenyl)-1,5-dihydro-4H-pyrrolo[2,3-d]pyridazin-4-one], which IC50 is on record?
Answer: 228 nM

Question: For `CC#CC(=O)N1CCC[C@H](c2cn(-c3ccc(Oc4ccccc4)cc3)c3c(N)n[nH]c(=O)c23)C1` [Example 72, (R)-7-amino-3-(1-(but-2-ynoyl)piperidin-3-yl)-1-(4-phenoxyphenyl)-1,5-dihydro-4H-pyrrolo[2,3-d]pyridazin-4-one], which IC50 is on record?
Answer: 260 nM

Question: For `CC#CC(=O)N1CC[C@@H](c2nn(-c3ccc(Oc4ccccc4F)cc3)c3c(N)n[nH]c(=O)c23)C1` [Example 73, (R)-7-amino-3-(1-(but-2-ynoyl)pyrrolidin-3-yl)-1-(4-(2-fluorophenoxy)phenyl)-1,5-dihydro-4H-pyrazolo[3,4-d]pyridazin-4-one], which IC50 is on record?
Answer: 440 nM

Question: For `CC#CC(=O)N1CC[C@H](c2nn(-c3ccc(Oc4ccccc4F)cc3)c3c(N)n[nH]c(=O)c23)C1` [Example 74, (S)-7-amino-3-(1-(but-2-ynoyl)pyrrolidin-3-yl)-1-(4-(2-fluorophenoxy)phenyl)-1,5-dihydro-4H-pyrazolo[3,4-d]pyridazin-4-one], which IC50 is on record?
Answer: 393 nM
